Assay [1] concerns the target Eukaryotic translation initiation factor 4H (Homo sapiens, UniProt Q15056). As to the kind of experiment: human eIF4H binding inhibitors, primary screen, translation initiation inhibitor project, biochemical, uHTS, fluorescence polarization (AID 2012). Background: In fluorescence polarisation assays a small probe gives low polarisation when free and higher when bound to something large.

Assay [2] concerns the target T1, Alkaline phosphatase, tissue-nonspecific isozyme (Homo sapiens, UniProt P05186).
T1 sequence (P05186 whole entry): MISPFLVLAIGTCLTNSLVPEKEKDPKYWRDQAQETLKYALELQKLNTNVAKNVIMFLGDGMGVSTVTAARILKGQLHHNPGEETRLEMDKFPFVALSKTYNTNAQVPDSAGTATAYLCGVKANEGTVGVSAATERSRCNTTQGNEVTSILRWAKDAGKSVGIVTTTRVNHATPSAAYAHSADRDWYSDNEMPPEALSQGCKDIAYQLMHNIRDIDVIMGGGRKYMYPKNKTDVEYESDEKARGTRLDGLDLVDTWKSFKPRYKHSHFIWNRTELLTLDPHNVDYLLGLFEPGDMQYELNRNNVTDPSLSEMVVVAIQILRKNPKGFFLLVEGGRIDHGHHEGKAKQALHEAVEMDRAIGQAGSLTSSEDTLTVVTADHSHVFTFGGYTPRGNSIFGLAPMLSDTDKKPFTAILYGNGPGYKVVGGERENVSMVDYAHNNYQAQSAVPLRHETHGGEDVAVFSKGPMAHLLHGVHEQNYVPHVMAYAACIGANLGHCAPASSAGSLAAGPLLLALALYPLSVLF
As to the kind of experiment: TNAP enzyme activators, dose response, selectivity assay for mouse IAP activator project, biochemical, TNAP isozyme, mouse IAP uHTS hits (AID 488880). In kind it is functional.

Assay [3] addresses T2, SUMO-activating enzyme (Homo sapiens, UniProt Q9UBT2). As to the kind of experiment: SUMOylation inhibitor hit validation, confirmation, SUMOylation inhibitor project, biochemical, AlphaScreen (AID 2018). Format: functional. (Alpha assays give light when donor and acceptor beads are brought close together.)
Assay [4] addresses T2, SUMO-activating enzyme. As to the kind of experiment: inhibitors of in vitro SUMOylation cascade, primary screen, biochemical, HTRF, uHTS (AID 2006). In kind it is protein-complex assay. (TR-FRET usually uses a lanthanide donor and a delayed reading to cut background.)
Assay [5] addresses Intestinal-type alkaline phosphatase (Homo sapiens, UniProt P09923). As to the kind of experiment: activation of human intestinal alkaline phosphatase – biochemical, dose response (AID 488873). Format: functional.
Assay [6] has as its target Intestinal-type alkaline phosphatase (Mus musculus, UniProt P24822). As to the kind of experiment: mouse intestinal alkaline phosphatase activators, dose response, biochemical, luminescence, uHTS hits (AID 488783). In kind it is functional.
Assay [7] concerns the target Polyadenylate-binding protein 1 (Homo sapiens, UniProt P11940). As to the kind of experiment: PABP poly(A) RNA binding inhibitors, primary screen, biochemical, fluorescence polarization, uHTS (AID 2014).
Assay [8] deals with T3, G-protein coupled receptor 35 (Homo sapiens, UniProt Q9HC97). As to the kind of experiment: SAR analysis of Agonists of the GPR35 Receptor using an Image-Based Assay - Set 2. [Related pubchem assays (depositor defined):AID2013, AID2026]. In kind it is functional.
The target of assay [9] is T3, G-protein coupled receptor 35. As to the kind of experiment: SAR analysis of Antagonists of the GPR35 Receptor using an Image-Based Assay - Set 3. [Related pubchem assays (depositor defined):AID2013, AID2026]. Format: functional.
In assay [10] the target is T4, Cannabinoid receptor 2 (Homo sapiens, UniProt P34972). As to the kind of experiment: SAR analysis of antagonists of the Cannabinoid Receptor 2 using an Image-Based Assay. [Related pubchem assays (depositor defined):AID2013, AID2026]. Format: functional.
The target of assay [11] is T5, G-protein coupled receptor 55 (Homo sapiens, UniProt Q9Y2T6). As to the kind of experiment: GPR55 antagonists blocking LPI-driven arrestin recruitment, primary screen, imaging, U2OS, beta-arrestin-GFP, LPI agonist (AID 2013).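 Further: antagonist potency measured as reduced agonist-driven arrestin aggregation.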 In kind it is functional.
For assay [12], the target named is T5, G-protein coupled receptor 55. As to the kind of experiment: GPR55 antagonist potency of analogs, SAR follow-up, imaging, U2OS, beta-arrestin-GFP, LPI agonist, set 2 (AID 2820). Format: functional.
The target of assay [13] is T6, Cannabinoid receptor 1 (Homo sapiens, UniProt P21554). As to the kind of experiment: SAR analysis of agonists of the Cannabinoid Receptor 1 using an Image-Based Assay - Set 2. [Related pubchem assays (depositor defined):AID2013, AID2026]. Format: functional.
The target of assay [14] is T4, Cannabinoid receptor 2. As to the kind of experiment: SAR analysis of agonists of the Cannabinoid Receptor 2 using an Image-Based Assay. [Related pubchem assays (depositor defined):AID2013, AID2026]. In kind it is functional.
For assay [15], the target named is T6, Cannabinoid receptor 1. As to the kind of experiment: SAR analysis of antagonists of the Cannabinoid Receptor 1 using an Image-Based Assay - Set 2. [Related pubchem assays (depositor defined):AID2013, AID2026]. In kind it is functional.
Assay [16] has as its system HEK293. As to the kind of experiment: SAR analysis of compounds that are cytotoxic to HEK293 - Set 3. [Related pubchem assays (depositor defined):AID1575, AID1578, AID1848, AID1849, AID2001, AID2333, AID2334, AID2335, AID2337, AID2469]. Format: functional, cell-based. The conditions noted are these: Homo sapiens.
Assay [17] addresses T7, Interleukin-8 (Homo sapiens, UniProt P10145).
T7 sequence (P10145 whole entry): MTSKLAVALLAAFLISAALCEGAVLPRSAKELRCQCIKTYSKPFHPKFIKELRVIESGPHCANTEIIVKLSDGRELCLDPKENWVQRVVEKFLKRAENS
As to the kind of experiment: SAR analysis of Tumor necrosis factor alpha (TNF-alpha) induced IL-8 secretion in MCF-7/NOD1 cells - Set 2. [Related pubchem assays (depositor defined):AID1575, AID2250, AID2260]. In kind it is functional, cell-based.

Assay [18] concerns the target T8, Nucleotide-binding oligomerization domain-containing protein 1 (Homo sapiens, UniProt Q9Y239).
T8 sequence (Q9Y239 whole entry): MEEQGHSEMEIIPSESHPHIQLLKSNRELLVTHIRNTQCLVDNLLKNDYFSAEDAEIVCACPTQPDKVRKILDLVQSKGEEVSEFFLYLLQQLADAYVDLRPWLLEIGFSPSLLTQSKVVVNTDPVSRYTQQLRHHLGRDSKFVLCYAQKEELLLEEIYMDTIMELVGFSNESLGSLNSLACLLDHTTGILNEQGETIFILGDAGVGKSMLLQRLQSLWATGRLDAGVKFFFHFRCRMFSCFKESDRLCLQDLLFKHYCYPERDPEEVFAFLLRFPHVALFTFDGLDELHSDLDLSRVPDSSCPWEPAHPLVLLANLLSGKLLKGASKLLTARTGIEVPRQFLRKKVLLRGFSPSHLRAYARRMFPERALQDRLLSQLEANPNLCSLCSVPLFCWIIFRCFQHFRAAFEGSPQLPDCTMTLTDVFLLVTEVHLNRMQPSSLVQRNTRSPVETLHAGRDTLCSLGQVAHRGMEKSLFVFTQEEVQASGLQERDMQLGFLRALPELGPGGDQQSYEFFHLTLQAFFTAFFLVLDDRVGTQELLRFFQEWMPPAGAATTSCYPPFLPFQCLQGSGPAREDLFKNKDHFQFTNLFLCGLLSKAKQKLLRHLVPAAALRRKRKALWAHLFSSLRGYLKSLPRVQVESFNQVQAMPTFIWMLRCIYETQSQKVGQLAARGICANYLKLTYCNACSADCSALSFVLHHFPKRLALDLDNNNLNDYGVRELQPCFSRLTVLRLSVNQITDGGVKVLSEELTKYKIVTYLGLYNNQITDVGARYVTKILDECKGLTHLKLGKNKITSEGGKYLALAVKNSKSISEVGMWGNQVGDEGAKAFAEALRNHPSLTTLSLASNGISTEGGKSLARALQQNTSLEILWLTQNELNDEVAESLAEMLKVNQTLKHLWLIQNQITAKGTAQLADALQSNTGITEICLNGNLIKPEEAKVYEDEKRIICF
As to the kind of experiment: SAR analysis of compounds that inhibit NOD1 - Set 2. [Related pubchem assays (depositor defined):AID1566, AID1575, AID1578, AID1849, AID1852, AID2333, AID2335, AID2798]. In kind it is functional.

Assay [19] addresses Tumor necrosis factor (Homo sapiens, UniProt P01375). As to the kind of experiment: TNFa-triggered NF-kB activation inhibitors, SAR follow-up, cell-based, set 3 (AID 2801). In kind it is functional.
The test system of assay [20] is HEK293. As to the kind of experiment: SAR analysis of compounds that are cytotoxic to HEK293 - Set 2. [Related pubchem assays (depositor defined):AID1575, AID1578, AID1849, AID2001, AID2333, AID2334, AID2335, AID2337, AID2800]. The conditions noted are these: Homo sapiens. In kind it is functional, cell-based.
Assay [21] concerns the target T8, Nucleotide-binding oligomerization domain-containing protein 1. As to the kind of experiment: SAR analysis of NF-kappaB dependent luciferase using DAP as an inducer - Set 2. [Related pubchem assays (depositor defined):AID1566, AID1575, AID1578, AID1579, AID1849, AID1852, AID2264]. Format: functional.
For assay [22], the target named is T7, Interleukin-8. As to the kind of experiment: SAR analysis of GM-Tri-DAP induced IL-8 secretion in MCF-7/NOD1 cells - Set 2. [Related pubchem assays (depositor defined):AID1575, AID1578, AID2333]. Format: functional, cell-based.
Assay [23] addresses T9, Nucleotide-binding oligomerization domain-containing protein 2 (Homo sapiens, UniProt Q9HC29). As to the kind of experiment: NOD2 inhibitors, SAR follow-up, set 2 (AID 2475). In kind it is functional.
In assay [24] the target is T9, Nucleotide-binding oligomerization domain-containing protein 2. As to the kind of experiment: NOD2 signaling inhibitors, analog potency, SAR follow-up, cell-based, set 3 (AID 2799). Format: functional.
In assay [25] the target is T8, Nucleotide-binding oligomerization domain-containing protein 1. As to the kind of experiment: SAR analysis of compounds that inhibit NOD1 - Set 3. [Related pubchem assays (depositor defined):AID1566, AID1575, AID1578, AID1849, AID1852, AID2333, AID2335, AID2466]. Format: functional.

Activity calls are given as the source filed them. Where only a bound is given, the exact number is not on record here.

As a reminder, the IC50 is the concentration at which inhibition is half-maximal. As usually defined, the EC50 is the concentration giving half of the maximal effect.

T5 sequence (Q9Y2T6 whole entry): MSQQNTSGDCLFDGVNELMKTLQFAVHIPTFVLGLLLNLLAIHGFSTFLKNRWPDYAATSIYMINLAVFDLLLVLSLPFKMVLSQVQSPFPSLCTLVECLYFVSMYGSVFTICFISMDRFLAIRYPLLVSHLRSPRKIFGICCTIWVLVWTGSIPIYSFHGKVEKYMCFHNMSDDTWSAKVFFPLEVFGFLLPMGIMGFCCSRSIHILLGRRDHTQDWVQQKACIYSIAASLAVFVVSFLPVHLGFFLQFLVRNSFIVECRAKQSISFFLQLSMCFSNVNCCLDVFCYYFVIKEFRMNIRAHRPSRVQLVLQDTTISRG
T4 sequence (P34972 whole entry): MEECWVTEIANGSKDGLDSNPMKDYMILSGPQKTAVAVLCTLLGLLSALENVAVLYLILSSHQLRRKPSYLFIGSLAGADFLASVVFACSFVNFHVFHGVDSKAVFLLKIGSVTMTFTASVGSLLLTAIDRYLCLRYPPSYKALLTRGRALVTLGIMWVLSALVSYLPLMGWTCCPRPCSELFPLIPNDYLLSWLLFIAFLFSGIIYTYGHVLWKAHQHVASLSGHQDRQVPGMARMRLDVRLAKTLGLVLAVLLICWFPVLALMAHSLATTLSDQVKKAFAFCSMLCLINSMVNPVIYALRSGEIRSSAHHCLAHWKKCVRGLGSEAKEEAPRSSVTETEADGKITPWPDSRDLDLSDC
T3 sequence (Q9HC97 whole entry): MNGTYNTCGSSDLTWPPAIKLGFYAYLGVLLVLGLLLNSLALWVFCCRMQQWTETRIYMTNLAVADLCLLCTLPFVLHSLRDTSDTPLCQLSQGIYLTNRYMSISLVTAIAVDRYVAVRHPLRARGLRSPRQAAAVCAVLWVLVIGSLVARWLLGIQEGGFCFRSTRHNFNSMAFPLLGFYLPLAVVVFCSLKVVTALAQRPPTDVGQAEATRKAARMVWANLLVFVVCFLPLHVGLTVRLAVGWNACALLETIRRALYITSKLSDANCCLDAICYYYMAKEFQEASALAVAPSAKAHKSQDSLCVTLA
T9 sequence (Q9HC29 whole entry, the tested form may be a part): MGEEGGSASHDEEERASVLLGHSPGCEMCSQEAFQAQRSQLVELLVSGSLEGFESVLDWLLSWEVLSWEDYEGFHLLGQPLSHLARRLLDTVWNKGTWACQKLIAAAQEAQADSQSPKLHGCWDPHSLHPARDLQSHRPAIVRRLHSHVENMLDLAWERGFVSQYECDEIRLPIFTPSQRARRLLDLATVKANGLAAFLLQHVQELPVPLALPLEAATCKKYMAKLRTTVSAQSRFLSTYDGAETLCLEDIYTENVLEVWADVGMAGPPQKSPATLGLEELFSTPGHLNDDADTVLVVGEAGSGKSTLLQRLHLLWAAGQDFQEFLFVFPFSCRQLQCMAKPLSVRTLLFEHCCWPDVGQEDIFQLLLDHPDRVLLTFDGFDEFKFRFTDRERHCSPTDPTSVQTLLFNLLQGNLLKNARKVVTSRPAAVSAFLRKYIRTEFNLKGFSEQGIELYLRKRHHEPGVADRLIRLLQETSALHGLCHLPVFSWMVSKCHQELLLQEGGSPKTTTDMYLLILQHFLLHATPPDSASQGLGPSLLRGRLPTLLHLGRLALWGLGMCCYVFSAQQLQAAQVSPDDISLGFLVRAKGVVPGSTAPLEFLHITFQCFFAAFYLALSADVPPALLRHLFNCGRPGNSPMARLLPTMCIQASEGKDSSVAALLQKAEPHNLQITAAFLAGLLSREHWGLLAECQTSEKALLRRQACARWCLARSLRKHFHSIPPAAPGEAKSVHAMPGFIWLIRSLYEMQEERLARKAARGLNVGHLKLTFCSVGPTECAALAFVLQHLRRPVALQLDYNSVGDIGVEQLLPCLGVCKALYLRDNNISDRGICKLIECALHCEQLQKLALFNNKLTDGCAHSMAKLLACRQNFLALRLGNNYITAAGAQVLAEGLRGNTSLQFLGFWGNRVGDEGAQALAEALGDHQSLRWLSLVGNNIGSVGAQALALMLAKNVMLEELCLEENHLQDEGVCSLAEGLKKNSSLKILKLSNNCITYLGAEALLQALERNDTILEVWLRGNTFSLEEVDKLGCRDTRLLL
T6 sequence (P21554 whole entry): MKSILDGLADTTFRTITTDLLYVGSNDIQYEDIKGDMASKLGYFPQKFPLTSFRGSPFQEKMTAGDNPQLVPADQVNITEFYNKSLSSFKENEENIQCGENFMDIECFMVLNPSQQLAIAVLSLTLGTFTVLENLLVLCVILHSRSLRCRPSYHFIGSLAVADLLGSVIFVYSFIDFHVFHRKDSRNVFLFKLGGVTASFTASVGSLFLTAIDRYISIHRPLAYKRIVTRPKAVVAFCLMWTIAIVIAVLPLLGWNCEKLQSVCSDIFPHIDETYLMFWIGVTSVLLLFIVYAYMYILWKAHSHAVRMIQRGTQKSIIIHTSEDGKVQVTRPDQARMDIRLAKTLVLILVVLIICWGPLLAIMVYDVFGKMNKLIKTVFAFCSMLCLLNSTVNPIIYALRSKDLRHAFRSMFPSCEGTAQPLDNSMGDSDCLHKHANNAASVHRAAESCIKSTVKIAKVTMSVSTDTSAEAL
T2 sequence (Q9UBE0 whole entry): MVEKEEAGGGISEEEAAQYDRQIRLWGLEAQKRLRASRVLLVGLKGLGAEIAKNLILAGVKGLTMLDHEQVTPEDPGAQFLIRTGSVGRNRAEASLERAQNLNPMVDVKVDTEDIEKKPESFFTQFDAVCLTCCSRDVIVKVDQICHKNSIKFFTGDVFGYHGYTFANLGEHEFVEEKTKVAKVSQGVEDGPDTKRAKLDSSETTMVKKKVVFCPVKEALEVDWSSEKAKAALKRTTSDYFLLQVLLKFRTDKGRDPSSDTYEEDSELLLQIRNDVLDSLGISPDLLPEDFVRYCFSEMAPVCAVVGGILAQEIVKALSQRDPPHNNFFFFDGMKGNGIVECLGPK
T2 sequence (Q9UBT2 whole entry): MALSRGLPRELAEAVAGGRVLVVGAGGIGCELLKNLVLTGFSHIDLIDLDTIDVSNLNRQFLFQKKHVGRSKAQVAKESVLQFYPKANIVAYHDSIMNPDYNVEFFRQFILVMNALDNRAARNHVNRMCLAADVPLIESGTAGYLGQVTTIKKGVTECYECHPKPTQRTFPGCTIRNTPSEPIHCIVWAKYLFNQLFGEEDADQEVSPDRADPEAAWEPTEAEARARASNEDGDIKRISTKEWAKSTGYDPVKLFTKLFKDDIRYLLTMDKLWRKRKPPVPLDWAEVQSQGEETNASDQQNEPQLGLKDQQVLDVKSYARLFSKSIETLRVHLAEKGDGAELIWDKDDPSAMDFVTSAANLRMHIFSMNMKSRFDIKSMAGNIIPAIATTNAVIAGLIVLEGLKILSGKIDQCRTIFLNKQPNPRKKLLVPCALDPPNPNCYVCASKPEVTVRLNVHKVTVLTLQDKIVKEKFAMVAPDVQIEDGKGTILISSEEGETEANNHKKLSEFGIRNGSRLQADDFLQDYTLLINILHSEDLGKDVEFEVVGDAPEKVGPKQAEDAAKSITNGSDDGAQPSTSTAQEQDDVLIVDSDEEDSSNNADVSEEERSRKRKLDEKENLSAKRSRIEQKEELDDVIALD
Chain of Polyadenylate-binding protein 1 (P11940 whole entry): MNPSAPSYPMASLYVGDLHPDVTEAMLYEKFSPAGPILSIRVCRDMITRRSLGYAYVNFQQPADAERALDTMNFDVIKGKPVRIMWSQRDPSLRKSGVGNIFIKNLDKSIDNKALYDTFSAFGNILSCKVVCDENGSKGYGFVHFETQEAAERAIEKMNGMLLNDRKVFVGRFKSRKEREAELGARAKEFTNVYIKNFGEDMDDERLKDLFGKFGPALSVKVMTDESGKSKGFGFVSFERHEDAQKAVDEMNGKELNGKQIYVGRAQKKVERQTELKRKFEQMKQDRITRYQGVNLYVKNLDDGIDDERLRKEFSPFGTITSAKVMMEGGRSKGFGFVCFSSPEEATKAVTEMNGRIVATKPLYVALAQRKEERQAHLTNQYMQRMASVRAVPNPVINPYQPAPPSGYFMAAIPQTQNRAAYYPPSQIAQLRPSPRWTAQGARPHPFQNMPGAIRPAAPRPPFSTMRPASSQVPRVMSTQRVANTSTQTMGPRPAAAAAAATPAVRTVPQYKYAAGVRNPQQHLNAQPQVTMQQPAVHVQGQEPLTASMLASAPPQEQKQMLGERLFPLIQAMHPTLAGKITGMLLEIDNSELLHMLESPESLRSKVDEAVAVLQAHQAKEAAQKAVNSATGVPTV
Chain of Intestinal-type alkaline phosphatase (Mus musculus, UniProt P24822) (P24822 whole entry): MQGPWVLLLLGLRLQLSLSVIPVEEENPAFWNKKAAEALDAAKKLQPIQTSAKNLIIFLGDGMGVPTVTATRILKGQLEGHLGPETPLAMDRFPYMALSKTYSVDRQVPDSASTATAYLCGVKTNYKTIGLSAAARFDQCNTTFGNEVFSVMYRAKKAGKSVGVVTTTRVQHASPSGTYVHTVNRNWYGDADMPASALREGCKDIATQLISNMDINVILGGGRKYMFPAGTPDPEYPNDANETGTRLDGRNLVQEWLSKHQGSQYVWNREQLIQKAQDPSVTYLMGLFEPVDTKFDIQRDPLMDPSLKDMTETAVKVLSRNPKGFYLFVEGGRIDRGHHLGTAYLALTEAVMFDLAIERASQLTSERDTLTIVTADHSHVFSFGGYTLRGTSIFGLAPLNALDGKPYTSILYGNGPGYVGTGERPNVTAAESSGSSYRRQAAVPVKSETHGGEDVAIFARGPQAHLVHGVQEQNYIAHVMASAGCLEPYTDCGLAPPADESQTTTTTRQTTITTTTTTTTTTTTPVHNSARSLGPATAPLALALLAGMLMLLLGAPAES

Take `Cc1ccc(C(=O)Nc2nnc(CC(=O)N/N=C/c3ccc(O)c(O)c3)s2)cc1`: the half-inhibitory concentration (IC50) is 4.81 µM (active) in assay [1], 1.71 µM (active) in assay [3], 37.1 µM (active) in assay [4] and 46 µM (active) in [7]. The concentration giving a half-maximal response (EC50) in [2] is 47.8 µM (active); in [5] it was 66 µM (active); in [6] it was 37.2 µM (active).
For `CCCCC1(Cc2cccc([N+](=O)[O-])c2)C(=O)N(c2ccccc2)N(c2ccccc2)C1=O`, the EC50 in [8], in assay [13] and in [14] was > 32 µM (inactive) throughout. For the same compound, the IC50 is > 32 µM (inactive) in assay [9]; > 32 µM (inactive) in assay [10]; 0.552 µM (active) in [11]; 0.577 µM (active) in assay [12]; 11 µM (inactive) in assay [15].
For `COCCn1c(SCCCc2ccccc2)nc2c1c(=O)[nH]c(=O)n2C`, the IC50 in [16] is > 20 µM (inactive); in assay [17], > 25 µM (inactive); in [18], > 20 µM (inactive); in [19], > 20 µM (inactive); in [20], > 20 µM (inactive); in assay [21], > 25 µM (inactive). The IC50 in assay [22] was > 25 µM (inactive); in [23], > 20 µM (inactive); in [24], > 20 µM (inactive); in assay [25] it was > 20 µM (inactive).
